{
  "source": "patent US7375058B2",
  "about": "“Herbicidal mixtures based on 3-phenyluracils” (priority 2002, dated 2008)",
  "key": {"AVEFA": {"system": "AVEFA", "assay": "Greenhouse post-emergence herbicidal action against AVEFA", "type": "in vivo, Avena fatua", "conditions": "21 days", "source_text": "(§1) For the post-emergence treatment, the test plants were first grown to a height of 3 to 20 cm, depending on the plant habit, and only then treated. Here, the herbicidal compositions were suspended or emulsified in water as distribution medium and sprayed using finely distributing nozzles\n(§2) The respective components A and B and/or C were formulated as 10% by weight strength emulsion concentrate and introduced to the spray liquor with the amount of solvent system used for applying the active compound. In the examples, the solvent used was water.\n(§3) The test period extended over 21 days. During this time, the plants were tended, and their response to the treatments with active compound was evaluated.\n(§4) The evaluation for the damage caused by the chemical compositions was carried out using a scale from 0 to 100%, compared to the untreated control plants. Here, 0 means no damage and 100 means complete destruction of the plants.\n(§5) In the examples below, the value E which is to be expected if the activity of the individual compounds is just additive was calculated using the method of S. R. Colby (1967) “Calculating synergistic and antagonistic responses of herbicide combinations”, Weeds 15, p. 22 ff. E=X+Y−([…]) where • X=effect in percent using active compound A at an application rate a; • Y=effect in percent using active compound B at an application rate b; • E=expected effect (in %) of A+B at application rates a+b.\n(§6) If the observed effect is higher than the value E calculated according to Colby, a synergistic effect is present."}, "POLPE": {"system": "POLPE", "assay": "Greenhouse post-emergence herbicidal action against POLPE", "type": "in vivo, Polygonum persicaria", "conditions": "21 days", "source_text": "as §1, §2, §3, §4, §5, §6"}, "POAPR": {"system": "POAPR", "assay": "Pre-emergence herbicidal action against POAPR", "type": "in vivo, Poa pratensis", "conditions": "21 days", "description": "as §4\n(§7) In the examples below, the mixtures were applied by the pre-emergence method. To this end, the test plants were initially sown and covered with a thin layer of soil. Afterward (i.e. prior to the germination of the test plants), the mixtures according to the invention were sprayed onto the soil as an aqueous spray liquor at the stated application rate. As in the post-emergence method described above, the test period was 21 days. The damage was then evaluated as described above using a scale from 0 to 100% damage in comparison to untreated control plants (0% damage).\n(§8) A safener action is present if the damage to the crop plant caused by using a mixture according to the invention which contains a safener C) is less than the damage caused when active compound A or active compounds A and B are used without safener."}, "TRFPR": {"system": "TRFPR", "assay": "Pre-emergence herbicidal action against TRFPR", "type": "in vivo, Trifolium pratense", "conditions": "21 days", "description": "as §4, §7, §8"}, "TRZAW": {"system": "TRZAW", "assay": "Pre-emergence safener action (crop damage) in TRZAW", "type": "in vivo, Triticum aestivum (Winter wheat)", "conditions": "21 days", "description": "as §4, §7, §8"}, "ABUTH": {"system": "ABUTH", "assay": "Greenhouse post-emergence herbicidal action against ABUTH", "type": "in vivo, Abutilon theophrasti", "source_text": "as §1, §2, §3, §4, §5, §6"}, "BRAPL": {"system": "BRAPL", "assay": "Greenhouse post-emergence herbicidal action against BRAPL", "type": "in vivo, Brachiaria plantaginea", "source_text": "as §1, §2, §3, §4, §5, §6"}, "ECHCG": {"system": "ECHCG", "assay": "Greenhouse post-emergence herbicidal action against ECHCG", "type": "in vivo, Echinochloa crus-galli", "conditions": "21 days", "source_text": "as §1, §2, §3, §4, §5, §6"}, "GALAP": {"system": "GALAP", "assay": "Greenhouse post-emergence herbicidal action against GALAP", "type": "in vivo, Galium aparine", "conditions": "21 days", "source_text": "as §1, §2, §3, §4, §5, §6"}, "[1]": {"conditions": "application rate g/ha: I.7 1.95, b7.1 250"}, "[2]": {"conditions": "application rate g/ha: I.7 3.91, b7.1 500"}, "[3]": {"conditions": "I.7 200 g/ha and/or c.1 200 g/ha"}, "[4]": {"conditions": "I.7 400 g/ha and/or c.1 400 g/ha"}, "[5]": {"conditions": "I.8 200 g/ha and/or c.1 200 g/ha"}, "[6]": {"conditions": "I.8 400 g/ha and/or c.1 400 g/ha"}, "[7]": {"conditions": "I.14 0.49 g/ha and/or b13.3 62.5 g/ha"}, "[8]": {"conditions": "I.14 0.98 g/ha and/or b13.3 125 g/ha"}},
  "note": "Structures can show the parent of a compound that is named as a salt.",
  "data": [
    {"compound": "CP(=O)(O)CCC(N)C(=O)O", "note": "(stereo not shown) [b7.1, glufosinate ammonium salt, reference compound]", "values": [
      {"measurement": "Herbicidal action against AVEFA found", "setting": "AVEFA; [1]", "result": 0, "unit": "%"},
      {"measurement": "Herbicidal action against AVEFA found", "setting": "AVEFA; [2]", "result": 20, "unit": "%"},
      {"measurement": "Herbicidal action against POLPE found", "setting": "POLPE; [1]", "result": 0, "unit": "%"},
      {"measurement": "Herbicidal action against POLPE found", "setting": "POLPE; [2]", "result": 30, "unit": "%"}
    ]},
    {"compound": "CC(C)N.O=C(O)CNCP(=O)(O)O", "note": "[b6.1, glyphosate isopropylammonium salt, reference compound]", "values": [
      {"measurement": "Herbicidal action against AVEFA found", "setting": "AVEFA; application rate g/ha: I.7 1.95, b6.1 125", "result": 0, "unit": "%"},
      {"measurement": "Herbicidal action against AVEFA found", "setting": "AVEFA; application rate g/ha: I.7 3.91, b6.1 250", "result": 0, "unit": "%"}
    ]},
    {"compound": "CCOC(=O)C1=NN(c2ccc(Cl)cc2Cl)C(C)(C(=O)OCC)C1", "note": "(stereo not shown) [c.1, mefenpyr-diethyl, reference compound]", "values": [
      {"measurement": "Herbicidal action against POAPR", "setting": "POAPR; [3]", "result": 0, "unit": "%"},
      {"measurement": "Herbicidal action against POAPR", "setting": "POAPR; [4]", "result": 0, "unit": "%"},
      {"measurement": "Herbicidal action against POAPR", "setting": "POAPR; [5]", "result": 0, "unit": "%"},
      {"measurement": "Herbicidal action against POAPR", "setting": "POAPR; [6]", "result": 0, "unit": "%"},
      {"measurement": "Herbicidal action against TRFPR", "setting": "TRFPR; [3]", "result": 5, "unit": "%"},
      {"measurement": "Herbicidal action against TRFPR", "setting": "TRFPR; [4]", "result": 5, "unit": "%"},
      {"measurement": "Herbicidal action against TRFPR", "setting": "TRFPR; [5]", "result": 5, "unit": "%"},
      {"measurement": "Herbicidal action against TRFPR", "setting": "TRFPR; [6]", "result": 5, "unit": "%"},
      {"measurement": "Damage to crop plant TRZAW", "setting": "TRZAW; [3]", "result": 0, "unit": "%"},
      {"measurement": "Damage to crop plant TRZAW", "setting": "TRZAW; [4]", "result": 0, "unit": "%"},
      {"measurement": "Damage to crop plant TRZAW", "setting": "TRZAW; [5]", "result": 0, "unit": "%"},
      {"measurement": "Damage to crop plant TRZAW", "setting": "TRZAW; [6]", "result": 0, "unit": "%"}
    ]},
    {"compound": "CNC.O=C(O)COc1ccc(Cl)cc1Cl", "note": "[b13.3, 2,4-D dimethylammonium salt, reference compound]", "values": [
      {"measurement": "Herbicidal action against ABUTH found", "setting": "ABUTH; [7]", "result": 25, "unit": "%"},
      {"measurement": "Herbicidal action against ABUTH found", "setting": "ABUTH; [8]", "result": 65, "unit": "%"},
      {"measurement": "Herbicidal action against BRAPL found", "setting": "BRAPL; [7]", "result": 20, "unit": "%"},
      {"measurement": "Herbicidal action against BRAPL found", "setting": "BRAPL; [8]", "result": 50, "unit": "%"}
    ]},
    {"compound": "CC(C)c1ccc(NC(=O)N(C)C)cc1", "note": "[b3.3, isoproturon, reference compound]", "values": [
      {"measurement": "Herbicidal action against ABUTH found", "setting": "ABUTH; 21 days, application rate g/ha: I.7 0.98, b3.3 31.25", "result": 0, "unit": "%"},
      {"measurement": "Herbicidal action against ABUTH found", "setting": "ABUTH; 21 days, application rate g/ha: I.7 1.95, b3.3 62.5", "result": 40, "unit": "%"}
    ]},
    {"compound": "CN(C)C(=O)Nc1ccc(Cl)c(Cl)c1", "note": "[b3.2, diuron, reference compound]", "values": [
      {"measurement": "Herbicidal action against ECHCG found", "setting": "ECHCG; application rate g/ha: I.7 1.95, b3.2 62.5", "result": 15, "unit": "%"},
      {"measurement": "Herbicidal action against ECHCG found", "setting": "ECHCG; application rate g/ha: I.7 3.91, b3.2 125", "result": 20, "unit": "%"},
      {"measurement": "Herbicidal action against BRAPL found", "setting": "BRAPL; 21 days, application rate g/ha: I.7 1.95, b3.2 62.5", "result": 25, "unit": "%"},
      {"measurement": "Herbicidal action against BRAPL found", "setting": "BRAPL; 21 days, application rate g/ha: I.7 3.91, b3.2 125", "result": 60, "unit": "%"}
    ]},
    {"compound": "C[n+]1ccc(-c2cc[n+](C)cc2)cc1", "note": "[b3.4, paraquat, reference compound]", "values": [
      {"measurement": "Herbicidal action against ABUTH found", "setting": "ABUTH; 21 days, application rate g/ha: I.7 0.98, b3.4 31.25", "result": 0, "unit": "%"},
      {"measurement": "Herbicidal action against ABUTH found", "setting": "ABUTH; 21 days, application rate g/ha: I.7 1.95, b3.4 62.5", "result": 40, "unit": "%"}
    ]},
    {"compound": "O=C(Nc1ccc(F)cc1)c1cccc(Oc2cccc(C(F)(F)F)c2)n1", "note": "[b5.1, picolinafen, reference compound]", "values": [
      {"measurement": "Herbicidal action against POLPE found", "setting": "POLPE; application rate g/ha: I.8 0.98, b5.1 7.81", "result": 30, "unit": "%"},
      {"measurement": "Herbicidal action against POLPE found", "setting": "POLPE; application rate g/ha: I.8 1.95, b5.1 15.63", "result": 40, "unit": "%"},
      {"measurement": "Herbicidal action against BRAPL found", "setting": "BRAPL; 21 days, application rate g/ha: I.8 0.98, b5.1 7.81", "result": 20, "unit": "%"},
      {"measurement": "Herbicidal action against BRAPL found", "setting": "BRAPL; 21 days, application rate g/ha: I.8 1.95, b5.1 15.63", "result": 20, "unit": "%"}
    ]},
    {"compound": "CCO/N=C(\\CC)C1=C(O)CC(c2c(C)cc(C)cc2C)CC1=O", "note": "(stereo not shown) [b1.1, tralkoxydim, reference compound]", "values": [
      {"measurement": "Herbicidal action against GALAP found", "setting": "GALAP; application rate g/ha: I.1 1.95, b1.1 62.5", "result": 0, "unit": "%"},
      {"measurement": "Herbicidal action against GALAP found", "setting": "GALAP; application rate g/ha: I.1 3.91, b1.1 125", "result": 0, "unit": "%"}
    ]},
    {"compound": "CCCC(=NOCC(C)Oc1ccc(Cl)cc1)C1=C(O)CC(C2CCCSC2)CC1=O", "note": "(stereo not shown) [b1.2, profoxydim, reference compound]", "values": [
      {"measurement": "Herbicidal action against ABUTH found", "setting": "ABUTH; 21 days, application rate g/ha: I.1 1.95, b1.2 31.25", "result": 30, "unit": "%"},
      {"measurement": "Herbicidal action against ABUTH found", "setting": "ABUTH; 21 days, application rate g/ha: I.1 3.91, b1.2 62.5", "result": 40, "unit": "%"}
    ]},
    {"compound": "CS(=O)(=O)c1ccc(C(=O)C2C(=O)CCCC2=O)c(Cl)c1", "note": "[b5.2, sulcotrione, reference compound]", "values": [
      {"measurement": "Herbicidal action against ECHCG found", "setting": "ECHCG; application rate g/ha: I.8 1.95, b5.2 31.25", "result": 60, "unit": "%"},
      {"measurement": "Herbicidal action against ECHCG found", "setting": "ECHCG; application rate g/ha: I.8 3.91, b5.2 62.5", "result": 75, "unit": "%"}
    ]}
  ]
}
